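Assay format: 96-well plates, 48-hour exposure. GI50 marks 50% less growth. TGI marks complete inhibition of growth.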
Assays:
Assay in all cases: NCI-60 cell line screen, 48 h
[1] = system: RPMI-8226 leukemia
[2] = system: RXF 393 renal
[3] = system: SK-MEL-28 melanoma
[4] = system: SW-620 colon
[5] = system: OVCAR-3 ovarian
[6] = system: NCI-H23 lung
[7] = system: U251 CNS
[8] = system: COLO 205 colon
[9] = system: SK-MEL-2 melanoma
[10] = system: A549 NSCLC
[11] = system: MDA-MB-231 breast
[12] = system: HCT-116 colon
[13] = system: LOX IMVI melanoma
[14] = system: DU-145 prostate
[15] = system: CCRF-CEM leukemia
[16] = system: HCT-15 colon
[17] = system: SNB-75 CNS
[18] = system: NCI-H460 lung
[19] = system: MDA-MB-435
[20] = system: ACHN renal
[21] = system: BT-549 breast
[22] = system: T-47D breast
[23] = system: UACC-62 melanoma
[24] = system: NCI/ADR-RES ovarian
[25] = system: HCC-2998 colon
[26] = system: PC-3 prostate
[27] = system: TK-10 renal
[28] = system: CAKI-1 renal
[29] = system: SK-OV-3 ovarian
[30] = system: UACC-257 melanoma
[31] = system: SF-295 CNS
[32] = system: SN12C renal
[33] = system: UO-31 renal
[34] = system: SF-539 CNS
[35] = system: NCI-H522 lung
[36] = system: 786-0 renal
[37] = system: A498 renal
[38] = system: OVCAR-8 ovarian
[39] = system: MCF7 breast
[40] = system: HL-60(TB) leukemia
[41] = system: M14 melanoma
[42] = system: HS 578T breast
[43] = system: SF-268 CNS
[44] = system: SK-MEL-5 melanoma
[45] = system: HOP-62 NSCLC
[46] = system: KM12 colon
[47] = system: HT29 colon
[48] = system: IGROV1 ovarian
[49] = system: EKVX NSCLC
[50] = system: K-562 leukemia
[51] = system: MALME-3M melanoma
[52] = system: MOLT-4 leukemia
[53] = system: OVCAR-5 ovarian
[54] = system: NCI-H226 lung
[55] = system: HOP-92 NSCLC
[56] = system: SR leukemia
[57] = system: SNB-19 CNS
[58] = system: OVCAR-4 ovarian

SMILES: O=C1/C(=C/c2ccc(Cl)cc2)COc2ccc(O)cc21
- GI50 [1]: 0.302 µM
- TGI [1]: 0.905 µM
- GI50 [2]: 1.83 µM
- TGI [2]: 3.45 µM
- GI50 [3]: 2.07 µM
- TGI [3]: 4.33 µM
- GI50 [4]: 1.87 µM
- TGI [4]: 4.26 µM
- GI50 [5]: 1.84 µM
- TGI [5]: 3.55 µM
- GI50 [6]: 2.21 µM
- TGI [6]: 5.16 µM
- GI50 [7]: 1.52 µM
- TGI [7]: 2.84 µM
- GI50 [8]: 1.86 µM
- TGI [8]: 4.63 µM
- GI50 [9]: 12.3 µM
- TGI [9]: 28.5 µM
- GI50 [10]: 9.28 µM
- TGI [10]: 30.7 µM
- GI50 [11]: 2.73 µM
- TGI [11]: 8.62 µM
- GI50 [12]: 1.61 µM
- TGI [12]: 3.08 µM
- GI50 [13]: 1.74 µM
- TGI [13]: 3.18 µM
- GI50 [14]: 3.69 µM
- TGI [14]: 13 µM
- GI50 [15]: 0.291 µM
- TGI [15]: 1.82 µM
- GI50 [16]: 1.84 µM
- TGI [16]: 4.04 µM
- GI50 [17]: 12.5 µM
- TGI [17]: 26.3 µM
- GI50 [18]: 3.32 µM
- TGI [18]: 11.2 µM
- GI50 [19]: 2.77 µM
- TGI [19]: 8.2 µM
- GI50 [20]: 2.39 µM
- TGI [20]: 5.68 µM
- GI50 [21]: 3.34 µM
- TGI [21]: 11.5 µM
- GI50 [22]: 2.22 µM
- TGI [22]: 5.59 µM
- GI50 [23]: 2.23 µM
- TGI [23]: 5.46 µM
- GI50 [24]: 2.99 µM
- TGI [24]: 9.13 µM
- GI50 [25]: 1.82 µM
- TGI [25]: 3.33 µM
- GI50 [26]: 2.15 µM
- TGI [26]: 5.14 µM
- GI50 [27]: 3.33 µM
- TGI [27]: 13.4 µM
- GI50 [28]: 2.02 µM
- TGI [28]: 5.3 µM
- GI50 [29]: 14 µM
- TGI [29]: 44.5 µM
- GI50 [30]: 3.16 µM
- TGI [30]: 13 µM
- GI50 [31]: 14.5 µM
- TGI [31]: 30 µM
- GI50 [32]: 1.86 µM
- TGI [32]: 4.22 µM
- GI50 [33]: 1.61 µM
- TGI [33]: 3.99 µM
- GI50 [34]: 1.8 µM
- TGI [34]: 3.56 µM
- GI50 [35]: 1.72 µM
- TGI [35]: 3.5 µM
- GI50 [36]: 2.04 µM
- TGI [36]: 4.58 µM
- GI50 [37]: 13.9 µM
- TGI [37]: 27.7 µM
- GI50 [38]: 3 µM
- TGI [38]: 11 µM
- GI50 [39]: 1.41 µM
- TGI [39]: 2.96 µM
- GI50 [40]: 1.36 µM
- TGI [40]: 4.36 µM
- GI50 [41]: 2.33 µM
- TGI [41]: 6.31 µM
- GI50 [42]: 3.22 µM
- TGI [42]: 18.1 µM
- GI50 [43]: 3.29 µM
- TGI [43]: 16.7 µM
- GI50 [44]: 2.32 µM
- TGI [44]: 5.37 µM
- GI50 [45]: 6.31 µM
- TGI [45]: 22.5 µM
- GI50 [46]: 2.04 µM
- TGI [46]: 4.46 µM
- GI50 [47]: 2.67 µM
- TGI [47]: 6.61 µM
- GI50 [48]: 1.67 µM
- TGI [48]: 3.31 µM
- GI50 [49]: 7.31 µM
- TGI [49]: 20.4 µM
- GI50 [50]: 2.55 µM
- TGI [50]: 25.8 µM
- GI50 [51]: 2.37 µM
- TGI [51]: 6.08 µM
- GI50 [52]: 1.84 µM
- TGI [52]: 8.23 µM
- GI50 [53]: 2.44 µM
- TGI [53]: 6.81 µM
- GI50 [54]: 2.68 µM
- TGI [54]: 7.61 µM
- GI50 [55]: 8.84 µM
- TGI [55]: 37.6 µM
- GI50 [56]: 0.663 µM
- TGI [56]: 5.3 µM
- GI50 [57]: 2.16 µM
- TGI [57]: 5.18 µM
- GI50 [58]: 3.83 µM
- TGI [58]: 16.3 µM
